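Each compound was tested at five concentrations against cells in 96-well plates for 48 hours. GI50 is the concentration that inhibits growth by half.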 Calls of active or inactive are those of the source. No stated cut-off is given here; in the data, active = GI50 up to about 1.1 µM and inactive = higher.
What was measured:
Test in all cases: DTP human tumour cell line panel, 48 h
U-251 = system: U-251
KM-20L2 = system: KM-20L2
Hs-578T = system: Hs-578T
HOP-62 = system: HOP-62
EKVX = system: EKVX
SW-620 = system: SW-620
MCF7 = system: MCF7
HL-60 = system: HL-60
SF-268 = system: SF-268
HOP-92 = system: HOP-92
HT-29 = system: HT-29
SK-OV-3 = system: SK-OV-3
MDA-MB-435 = system: MDA-MB-435
K562 = system: K562
UACC-62 = system: UACC-62
SK-MEL-5 = system: SK-MEL-5
DMS-114 = system: DMS-114
NCI-H522 = system: NCI-H522
SNB-75 = system: SNB-75
KM12 = system: KM12
NCI-H226 = system: NCI-H226
Malme-3M = system: Malme-3M
OVCAR-4 = system: OVCAR-4
PC-3 = system: PC-3
HOP-18 = system: HOP-18
IGROV-1 = system: IGROV-1
A498 = system: A498
DU-145 = system: DU-145
LXFL 529 = system: LXFL 529
A549 = system: A549
TK-10 = system: TK-10
DLD-1 = system: DLD-1
SK-MEL-28 = system: SK-MEL-28
SNB-78 = system: SNB-78
M14 = system: M14
COLO 205 = system: COLO 205
SK-MEL-2 = system: SK-MEL-2
HCT-116 = system: HCT-116
BT-549 = system: BT-549
CAKI-1 = system: CAKI-1
786-0 = system: 786-0
M19-MEL = system: M19-MEL
OVCAR-3 = system: OVCAR-3
NCI-H460 = system: NCI-H460
XF498 = system: XF498
T47D = system: T47D
DMS-273 = system: DMS-273
MOLT-4 = system: MOLT-4
UO-31 = system: UO-31
CCRF-CEM = system: CCRF-CEM
RPMI-8226 = system: RPMI-8226
HCT-15 = system: HCT-15
RXF 631 = system: RXF 631
OVCAR-8 = system: OVCAR-8
MDA-MB-231 = system: MDA-MB-231
SR = system: SR
SF-539 = system: SF-539
SN12C = system: SN12C
HCC 2998 = system: HCC 2998
NCI-H23 = system: NCI-H23
OVCAR-5 = system: OVCAR-5
RXF 393 = system: RXF 393
UACC-257 = system: UACC-257
MDA-N = system: MDA-N
SNB-19 = system: SNB-19
LOX IMVI = system: LOX IMVI
ACHN = system: ACHN
SF-295 = system: SF-295
NCI/ADR-RES = system: NCI/ADR-RES

In the case of `COc1c(C=O)c2c(c(OC)c1OC)-c1ccc(OC)c(=O)cc1[C@@H](NC(C)=O)CC2`, the GI50 (U-251) was 36.7 nM (active), the GI50 (KM-20L2) was 36.4 nM (active) and the GI50 (Hs-578T) was < 10 nM (active). The GI50 (HOP-62) was 360 nM (active), the GI50 (EKVX) was 47900 nM (inactive) and the GI50 (SW-620) was 14.8 nM (active). The GI50 (MCF7) was < 10 nM (active), the GI50 (HL-60) was < 10 nM (active) and the GI50 (SF-268) was 44.4 nM (active). For the same compound, the GI50 (HOP-92) was 28.8 nM (active), the GI50 (HT-29) was 25.5 nM (active) and the GI50 (SK-OV-3) was 1200 nM (inactive). The GI50 (MDA-MB-435) was < 10 nM (active), the GI50 (K562) was < 12.6 nM (active) and the GI50 (UACC-62) was 41.2 nM (active). For the same compound, the GI50 (SK-MEL-5) was 24.1 nM (active), the GI50 (DMS-114) was < 14.6 nM (active) and the GI50 (NCI-H522) was 12.3 nM (active). The GI50 (SNB-75) was 25.4 nM (active), the GI50 (KM12) was 13.4 nM (active) and the GI50 (NCI-H226) was 583 nM (active). For the same compound, the GI50 (Malme-3M) was 164 nM (active), the GI50 (OVCAR-4) was 38900 nM (inactive) and the GI50 (PC-3) was 37.5 nM (active). For the same compound, the GI50 (HOP-18) was 21600 nM (inactive), the GI50 (IGROV-1) was 46.1 nM (active) and the GI50 (A498) was 347 nM (active). For the same compound, the GI50 (DU-145) was 415 nM (active), the GI50 (LXFL 529) was 19.1 nM (active) and the GI50 (A549) was 437 nM (active). The GI50 (TK-10) was 3830 nM (inactive), the GI50 (DLD-1) was 61.4 nM (active) and the GI50 (SK-MEL-28) was 4080 nM (inactive). For the same compound, the GI50 (SNB-78) was < 14.7 nM (active), the GI50 (M14) was 51 nM (active) and the GI50 (COLO 205) was 23.9 nM (active). The GI50 (SK-MEL-2) was 31.3 nM (active), the GI50 (HCT-116) was 17.4 nM (active) and the GI50 (BT-549) was 21100 nM (inactive). For the same compound, the GI50 (CAKI-1) was 703 nM (active), the GI50 (786-0) was 132 nM (active) and the GI50 (M19-MEL) was 76.4 nM (active). For the same compound, the GI50 (OVCAR-3) was 32.7 nM (active), the GI50 (NCI-H460) was 77.1 nM (active) and the GI50 (XF498) was 77.3 nM (active). For the same compound, the GI50 (T47D) was > 100000 nM (inactive), the GI50 (DMS-273) was 29 nM (active) and the GI50 (MOLT-4) was < 10 nM (active). For the same compound, the GI50 (UO-31) was 11500 nM (inactive), the GI50 (CCRF-CEM) was < 12.8 nM (active) and the GI50 (RPMI-8226) was < 10 nM (active). For the same compound, the GI50 (HCT-15) was 849 nM, the GI50 (RXF 631) was 229 nM (active) and the GI50 (OVCAR-8) was 44.4 nM (active). For the same compound, the GI50 (MDA-MB-231) was 352 nM (active), the GI50 (SR) was < 10 nM (active) and the GI50 (SF-539) was 23.7 nM (active). For the same compound, the GI50 (SN12C) was 82.4 nM (active), the GI50 (HCC 2998) was 63.7 nM (active) and the GI50 (NCI-H23) was 34 nM (active). The GI50 (OVCAR-5) was 3780 nM (inactive), the GI50 (RXF 393) was 148 nM (active) and the GI50 (UACC-257) was 82.6 nM (active). The GI50 (MDA-N) was < 10 nM (active), the GI50 (SNB-19) was 144 nM (active) and the GI50 (LOX IMVI) was 15 nM (active). The GI50 (ACHN) was 1170 nM (inactive) and the GI50 (SF-295) was 185 nM (active).

For `CCCCCCCCCCCCCCCCCCN(C)CC(COC)OP(=O)([O-])OCC[N+](C)(C)C` (stereo unspecified), the GI50 (U-251) was 891 nM (active), the GI50 (KM-20L2) was 2000 nM (inactive) and the GI50 (Hs-578T) was 4930 nM (inactive). For the same compound, the GI50 (HOP-62) was 1720 nM (inactive), the GI50 (EKVX) was 12500 nM (inactive) and the GI50 (SW-620) was 3150 nM (inactive). For the same compound, the GI50 (MCF7) was 3970 nM (inactive), the GI50 (HL-60) was 495 nM (active) and the GI50 (SF-268) was 1480 nM (inactive). For the same compound, the GI50 (HOP-92) was 1170 nM (inactive), the GI50 (HT-29) was 1280 nM (inactive) and the GI50 (SK-OV-3) was 11200 nM (inactive). For the same compound, the GI50 (MDA-MB-435) was 5080 nM (inactive), the GI50 (K562) was 9420 nM (inactive) and the GI50 (UACC-62) was 3050 nM (inactive). The GI50 (SK-MEL-5) was 9440 nM (inactive), the GI50 (DMS-114) was 2840 nM (inactive) and the GI50 (NCI-H522) was 1430 nM (inactive). The GI50 (SNB-75) was 1010 nM (active), the GI50 (KM12) was 644 nM (active) and the GI50 (NCI-H226) was 4320 nM (inactive). The GI50 (Malme-3M) was 11700 nM (inactive), the GI50 (OVCAR-4) was 2540 nM (inactive) and the GI50 (PC-3) was 374 nM (active). The GI50 (HOP-18) was 1850 nM (inactive), the GI50 (IGROV-1) was 532 nM (active) and the GI50 (A498) was 3770 nM (inactive). For the same compound, the GI50 (DU-145) was 2220 nM (inactive), the GI50 (LXFL 529) was 2210 nM (inactive) and the GI50 (A549) was 1780 nM (inactive). The GI50 (TK-10) was 1030 nM (active), the GI50 (DLD-1) was 1470 nM (inactive) and the GI50 (SK-MEL-28) was 15700 nM (inactive). The GI50 (SNB-78) was 3560 nM (inactive), the GI50 (M14) was 4110 nM (inactive) and the GI50 (COLO 205) was 1210 nM (inactive). For the same compound, the GI50 (SK-MEL-2) was 14400 nM (inactive), the GI50 (HCT-116) was 1660 nM (inactive) and the GI50 (BT-549) was 2530 nM (inactive). The GI50 (CAKI-1) was 1330 nM (inactive), the GI50 (786-0) was 938 nM (active) and the GI50 (M19-MEL) was 2750 nM (inactive). The GI50 (OVCAR-3) was 2240 nM (inactive), the GI50 (NCI-H460) was 851 nM (active) and the GI50 (XF498) was 4930 nM (inactive). The GI50 (T47D) was 14000 nM (inactive), the GI50 (DMS-273) was 625 nM (active) and the GI50 (MOLT-4) was 2830 nM (inactive). The GI50 (UO-31) was 7520 nM (inactive), the GI50 (CCRF-CEM) was 1510 nM (inactive) and the GI50 (RPMI-8226) was 635 nM (active). For the same compound, the GI50 (HCT-15) was 3140 nM, the GI50 (RXF 631) was 5250 nM (inactive) and the GI50 (OVCAR-8) was 3270 nM (inactive). For the same compound, the GI50 (SR) was 341 nM (active), the GI50 (SF-539) was 3840 nM (inactive) and the GI50 (SN12C) was 3300 nM (inactive). For the same compound, the GI50 (HCC 2998) was 1420 nM (inactive), the GI50 (NCI-H23) was 3160 nM (inactive) and the GI50 (OVCAR-5) was 1720 nM (inactive). For the same compound, the GI50 (RXF 393) was 824 nM (active), the GI50 (UACC-257) was 9080 nM (inactive) and the GI50 (MDA-N) was 4200 nM (inactive). For the same compound, the GI50 (SNB-19) was 867 nM (active), the GI50 (LOX IMVI) was 5140 nM (inactive) and the GI50 (ACHN) was 1910 nM (inactive). For the same compound, the GI50 (SF-295) was 1070 nM (active) and the GI50 (NCI/ADR-RES) was 17900 nM (inactive).

Source: ChEMBL document CHEMBL1201862, “PubChem BioAssay data set” (2004)
